Like-named read-outs stand apart in the source and are kept apart here. Numbered stars: 1 amine (or outer) side, 2 acyl side, 3 side chain; on linkers, the order of the positions; unused ones are H or OH. Square brackets hold non-standard residues; d marks the D form. Peptide text beside a SMILES is read from it. ξ: configuration not given here. X1 = CN(C(Cc1cn(Cc2ccc(Br)cc2)c2ccccc12)C(=O)[*:2])[*:1]; ξAla(CF3) = NC(CC(F)(F)F)C(=O)O; X2 = N#CCCC(O[*:1])C(=O)[*:2]; NMeL = CN[CH](CC(C)C)C(=O)O; NMeA = CN[CH](C)C(=O)O
Assays:
Sec61 [1] = target: T1, Sec61 (Homo sapiens, UniProt P61619); assay: signal peptide-GLuc (SP-GLuc) reporter panel, 89 constructs; type: cell-based; conditions: read-out: log10(IC50 8445) (converted)
T1 construct: endogenous in cells
Text: The heat map depicts IC50 values calculated from each SP-GLuc dose–response curve. d, Arthritis was induced in BALB/c mice with antibodies specific for type II collagen (mAb) on day 0 and endotoxin on day 3. On day 4, when the disease was present in all animals, mice were randomized and treated for 2 weeks with thrice weekly (QODx3) or weekly (QW) intravenous administration of vehicle or KZR-8445 or intraperitoneal administration of dexamethasone. Clinical scores (0–4 per paw; n = 10 per group) and body weights were followed until day 14. Data are presented as mean values ± s.d. mAb, monoclonal antibody. Source data
To investigate the effects of KZR-8445 on secretory and membrane protein biogenesis and to establish Sec61α as the relevant target, we quantified the secretion of a doxycycline-inducible Gaussia luciferase (GLuc) reporter fused to the C-terminus of two full-length pro-inflammatory cytokines, interleukin-2 (IL-2) (which contains a cleavable signal peptide) and tumor necrosis factor-alpha (TNFα) (which contains an N-terminal transmembrane anchor). […] KZR-8445 is structurally related to CT8, which discriminates among Sec61 clients based largely on their N-terminal signal peptide. […] We also directly compared KZR-8445 to mycolactone A/B, a structurally distinct and relatively client-nonselective Sec61 inhibitor[8],[25], for their ability to discriminate between vascular cell adhesion molecule (VCAM) and preprolactin (pPL) signal peptides.
Target sequence in this assay (P61619 whole entry): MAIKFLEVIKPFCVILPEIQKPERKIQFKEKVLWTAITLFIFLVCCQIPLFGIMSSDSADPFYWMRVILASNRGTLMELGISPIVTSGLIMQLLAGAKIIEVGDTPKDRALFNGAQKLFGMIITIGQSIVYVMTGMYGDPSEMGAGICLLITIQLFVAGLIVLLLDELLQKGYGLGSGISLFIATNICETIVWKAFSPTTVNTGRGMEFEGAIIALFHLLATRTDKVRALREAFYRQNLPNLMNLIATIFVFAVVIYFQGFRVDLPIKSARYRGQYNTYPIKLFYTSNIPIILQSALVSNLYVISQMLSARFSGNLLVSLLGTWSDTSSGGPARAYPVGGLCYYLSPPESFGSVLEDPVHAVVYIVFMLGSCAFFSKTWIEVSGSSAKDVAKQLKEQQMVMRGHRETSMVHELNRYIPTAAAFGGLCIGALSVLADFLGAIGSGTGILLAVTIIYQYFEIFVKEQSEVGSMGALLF
Target sequence in this assay (P60059 whole entry, further chain): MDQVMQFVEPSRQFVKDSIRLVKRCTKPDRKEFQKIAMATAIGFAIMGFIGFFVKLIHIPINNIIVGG
Target sequence in this assay (P60468 whole entry, further chain): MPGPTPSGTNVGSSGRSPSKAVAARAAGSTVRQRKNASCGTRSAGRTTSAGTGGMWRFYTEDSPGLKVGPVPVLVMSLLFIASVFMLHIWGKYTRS

Sec61α S82P = Sec61α S82P (Canis lupus familiaris, UniProt P38377, S82P); assay: Luciferase reporter assay in HEK293 cells expressing Sec61α S82P; design: remaining activity: dose or concentration left out as unconfirmed; conditions: HEK293, 24 h, read-out: luciferase reporter activity (% of no-drug control), S82P
Description: Data are mean values ± s.d. from n = 2 independent experiments.
HEK293T cells (0.3 × 10^6) were seeded per well of a six-well plate and incubated at 37 °C in 5% CO2 for 24 h to adhere. Each of the two wells was transfected with 1 µg of plasmid encoding a luciferase with the signal peptide of either VCAM1 or pPL using PEI in a 5:1 ratio, after which cells were returned to the incubator for a further 24 h. Transfected cells were then resuspended following trypsinization, cell count estimated using a TC20 Automated Cell Counter (BioRad) and diluted to seed a 96-well flat-bottom plate with 1.6 × 10^4 cells per well. […] Cells were then incubated for a further 24 h, after which the luciferase-containing media were transferred to a clean 96-well plate and stored at −20 °C. Luciferase activity of the media was estimated using a Gaussia-GLOW Juice Luciferase Assay kit from PJK Biotech GmbH as per the manufacturer’s instructions. Luminescence was measured using an EnSpire Multimode plate reader (PerkinElmer). Background luminescence from media placed in a well with neither cells nor drug was subtracted from all values, and measurements were calculated as a percentage of luminescence intensity of a well expressing the appropriate luciferase construct in the absence of any drug. Curves were fitted, and IC50 values were calculated using GraphPad Prism 8.
HEK293 Flp-In T-REx cells (Thermo Fisher Scientific, R78007) were cultured in Dulbecco’s modified Eagle’s medium (Gibco) supplemented with 10% FBS (Gibco) at 37 °C in a humidified 5% CO2 atmosphere. Approximately 0.3 µg of pOG44 and 1 µg of targeting construct plasmids were mixed in 250 µl of OptiMEM (Thermo Fisher Scientific, 51985-026). A total of 3 µl (3 µg) Lipofectamine3000 transfection reagent was then added to the DNA mix and incubated at room temperature for 20 min, and the whole mixture was added to the cells. Cells were exposed to 100 µg ml^−^1 hygromycin B (Invitrogen) and 10 µg ml^−^1 blasticidin for 3–4 weeks until the appearance of resistant colonies. Colonies were expanded into T75 flasks and induced with doxycycline (Sigma-Aldrich, D9891) at a concentration of 1–5 µg ml^−^1 for 48 h. Cells were collected, and total RNA was extracted followed by cDNA amplification and sequencing of Sec61 with gene-specific PCR primers to confirm. Cells were then used for the luciferase reporter assays as above.
Data are mean values ± SD and are representative of n = 2 independent experiments.

Sec61 [2] = target: T1, Sec61; assay: cell-based; conditions: 24 h, range in brackets
Target sequence in this assay (P60059 whole entry): as the sequence (P60059 whole entry, further chain) above
Target sequence in this assay (P61619 whole entry): as the sequence (P61619 whole entry) above
Target sequence in this assay (P60468 whole entry, further chain): as the sequence (P60468 whole entry, further chain) above

Chain of Sec61α S82P (P60468 whole entry): as the sequence (P60468 whole entry, further chain) above
Chain of Sec61α S82P (P38377 whole entry S82P): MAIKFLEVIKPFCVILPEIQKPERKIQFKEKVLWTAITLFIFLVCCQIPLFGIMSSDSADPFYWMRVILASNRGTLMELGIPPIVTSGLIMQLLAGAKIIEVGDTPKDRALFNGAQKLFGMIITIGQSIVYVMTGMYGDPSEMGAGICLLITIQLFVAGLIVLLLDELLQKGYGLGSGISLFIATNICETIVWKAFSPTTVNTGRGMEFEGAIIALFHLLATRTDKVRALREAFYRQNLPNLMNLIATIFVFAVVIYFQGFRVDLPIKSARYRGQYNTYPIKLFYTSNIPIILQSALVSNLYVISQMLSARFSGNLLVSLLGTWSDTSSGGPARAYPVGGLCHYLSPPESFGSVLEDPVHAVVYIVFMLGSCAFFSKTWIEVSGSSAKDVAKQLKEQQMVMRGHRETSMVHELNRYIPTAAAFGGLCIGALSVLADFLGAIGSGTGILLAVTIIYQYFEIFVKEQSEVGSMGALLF
Chain of Sec61α S82P (P60059 whole entry, further chain): as the sequence (P60059 whole entry, further chain) above

In the case of `CC(C)CC1NC(=O)C(Cc2cn(Cc3ccc(Br)cc3)c3ccccc23)N(C)C(=O)C(CC(F)(F)F)NC(=O)C(CC(C)C)N(C)C(=O)C(CC(F)(F)F)NC(=O)C(CCC#N)OC(=O)C(C)N(C)C1=O` (centres unmarked) [KZR-8445] (cyclo([X1]L[NMeA][X2][ξAla(CF3)][NMeL][ξAla(CF3)]); configuration not given here), the IC50 (Sec61 [1]; IL15 SP-GLuc) is reported as 116 nM, the IC50 (Sec61 [1]; IL17A SP-GLuc) is reported as 318 nM and the IC50 (Sec61 [1]; IL17F SP-GLuc) is reported as 228 nM. It also gave an IC50 (Sec61 [1]; IL17RA SP-GLuc) of 408 nM, an IC50 (Sec61 [1]; IL23A SP-GLuc) of 425 nM and an IC50 (Sec61 [1]; IL23R SP-GLuc) of 366 nM. For the same compound, the IC50 (Sec61 [1]; ITGA3 SP-GLuc) was 18300 nM, the IC50 (Sec61 [1]; ITGB1 SP-GLuc) was > 25000 nM and the IC50 (Sec61 [1]; ITGB3 SP-GLuc) was 106 nM. The IC50 (Sec61 [1]; ITGB5 SP-GLuc) was 89.1 nM, the IC50 (Sec61 [1]; ITGB7 SP-GLuc) was 228 nM and the IC50 (Sec61 [1]; JTB SP-GLuc) was 25.5 nM. The IC50 (Sec61 [1]; KRTDAP SP-GLuc) was 570 nM, the IC50 (Sec61 [1]; LCN6 SP-GLuc) was 101 nM and the IC50 (Sec61 [1]; LDLR SP-GLuc) was 800 nM. For the same compound, the IC50 (Sec61 [1]; LILRB2 SP-GLuc) was 1730 nM, the IC50 (Sec61 [1]; LRP8 SP-GLuc) was 681 nM and the IC50 (Sec61 [1]; LRRC32 SP-GLuc) was > 25000 nM. For the same compound, the IC50 (Sec61 [1]; MASP2 SP-GLuc) was 127 nM, the IC50 (Sec61 [1]; METTL7a SP-GLuc) was 6900 nM and the IC50 (Sec61 [1]; NGF SP-GLuc) was 347 nM. It also gave an IC50 (Sec61 [1]; P3H1 SP-GLuc) of 72.7 nM, an IC50 (Sec61 [1]; PCDHA4 SP-GLuc) of 489 nM and an IC50 (Sec61 [1]; PCSK9 SP-GLuc) of 1280 nM. The IC50 (Sec61 [1]; PDCD1 SP-GLuc) was 37 nM, the IC50 (Sec61 [1]; PRKCSH SP-GLuc) was 186 nM and the IC50 (Sec61 [1]; PSG8 SP-GLuc) was 292 nM. The IC50 (Sec61 [1]; SIRPA SP-GLuc) was 2030 nM, the IC50 (Sec61 [1]; SSR2 SP-GLuc) was 137 nM and the IC50 (Sec61 [1]; STAB1 SP-GLuc) was 670 nM. For the same compound, the IC50 (Sec61 [1]; SUCO SP-GLuc) was 1450 nM, the IC50 (Sec61 [1]; TGFB1 SP-GLuc) was 2210 nM and the IC50 (Sec61 [1]; TGFB2 SP-GLuc) was 187 nM. The IC50 (Sec61 [1]; TGFB3 SP-GLuc) was > 25000 nM, the IC50 (Sec61 [1]; TGFBR1 SP-GLuc) was 134 nM and the IC50 (Sec61 [1]; TIGIT SP-GLuc) was 590 nM. For the same compound, the IC50 (Sec61 [1]; TMED10 SP-GLuc) was 462 nM, the IC50 (Sec61 [1]; UCN SP-GLuc) was 5900 nM and the remaining activity at 0.00018303 µM (Sec61α S82P; Drug nM (log10) 0.18303) was 99%. The remaining activity at 0.000660151 µM (Sec61α S82P; Drug nM (log10) 0.660151) was 80.3%, the remaining activity at 0.00113727 µM (Sec61α S82P; Drug nM (log10) 1.13727) was 73.5% and the remaining activity (Sec61α S82P; Drug nM (log10) 1.61439) was 47.5%. For the same compound, the remaining activity (Sec61α S82P; Drug nM (log10) 2.09151) was 22.4%, the remaining activity (Sec61α S82P; Drug nM (log10) 2.56864) was 10.1% and the remaining activity (Sec61α S82P; Drug nM (log10) 3.04576) was 4.21%. It also gave a remaining activity (Sec61α S82P; Drug nM (log10) 3.52288) of 2.82%, a remaining activity at 0.004 µM (Sec61α S82P; Drug nM (log10) 4) of 3.25% and a remaining activity at 0.00050805 µM (Sec61α S82P; Drug nM (log10) -0.29409) of 102%. The IC50 (Sec61 [2]; HER3 signal peptide-GLuc, read-out: IC50 (nM) HER3) was 72 nM, the IC50 (Sec61 [2]; PD1 signal peptide-GLuc, read-out: IC50 (nM) PD1) was 32 nM and the IC50 (Sec61 [2]; full-length IL-2-GLuc, read-out: IC50 (nM) IL-2) was 84 nM. It also gave an IC50 (Sec61 [2]; full-length TNFα-GLuc, read-out: IC50 (nM) TNFα) of 40 nM and an IC50 (Sec61 [2]; prolactin signal peptide-GLuc, read-out: IC50 (nM) Prolactin) of 1070 nM.

Reference: PMC10449633 (Nature Chemical Biology, 2023)
